Results reported in patent publication US8975400B2, “2,3-dihydroimidazo[1, 2-c] pyrimidin-5(1 H)-one compounds use as LP-PLA2 inhibitors” (Glaxo Group Limited, priority 2011, dated 2015).
Counter-ions that a name gives are not always drawn.

Columns and labels:
[1] = target: T1, recombinant human Lp-PLA2 (Homo sapiens, UniProt Q13093); assay: Recombinant human Lp-PLA2 assay (rhLp-PLA2, PED6 assay); format: biochemical; conditions: recombinant human Lp-PLA2, PED6 substrate; upper limit for pIC50 in this assay is 9.3
T1 sequence (Q13093 22-441): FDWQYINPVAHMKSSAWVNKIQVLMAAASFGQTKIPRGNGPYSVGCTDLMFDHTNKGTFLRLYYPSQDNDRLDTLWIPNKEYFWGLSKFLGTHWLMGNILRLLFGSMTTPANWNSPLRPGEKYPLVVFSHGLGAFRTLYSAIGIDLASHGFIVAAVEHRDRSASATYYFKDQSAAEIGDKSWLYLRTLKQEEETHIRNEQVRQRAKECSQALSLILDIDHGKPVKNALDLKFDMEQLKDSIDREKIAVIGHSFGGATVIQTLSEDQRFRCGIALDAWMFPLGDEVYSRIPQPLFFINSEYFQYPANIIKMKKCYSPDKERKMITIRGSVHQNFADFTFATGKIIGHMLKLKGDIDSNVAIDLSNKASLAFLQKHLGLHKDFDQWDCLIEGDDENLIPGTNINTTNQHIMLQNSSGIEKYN
How it was run: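 Compound preincubated 30 min with rhLp-PLA2 (4 nM or 110 pM) in 50 mM HEPES pH 7.4, 150 mM NaCl, 1 mM CHAPS, then PED6 substrate (4 μM or 5 μM) added. After 20 min at room temperature protected from light, fluorescence read at ex 480/em 540. pIC50 derived from serial-dilution curves.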

Lp-PLA2 in human plasma = target: T2, Lp-PLA2 in human plasma (Homo sapiens, UniProt Q13093); assay: Lp-PLA2 human plasma assay (Thio-PAF assay); format: biochemical; conditions: pooled human plasma, 2-thio-PAF substrate; read-out: pIC50 in the thio-PAF assay (converted)
T2 construct: This assay may detect the activity of Lp-PLA2 in human plasma; from tissue; host or cells: pooled human plasma
T2 sequence (Q13093 22-441): T1 sequence (Q13093 22-441)
How it was run: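 Pooled human plasma preincubated 30 min with serially diluted compounds, then 2-thio-PAF substrate with CPM and NEM added in 50 mM HEPES pH 7.4, 150 mM NaCl, 1 mM CHAPS. TFA-quenched after 2 min, 40 min at RT, fluorescence ex 380/em 485; pIC50 from curve fit.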

| IC50 [1] [nM] | IC50 (Lp-PLA2 in human plasma) [nM] | SMILES |
| --- | --- | --- |
| ≤ 1 | ≤ 100 | CN1CCn2c1cc(OCc1cc(F)c(Oc3ccc(F)c(C(F)(F)F)c3)c(F)c1)nc2=O [Example E81, 7-((3,5-difluoro-4-(4-fluoro-3-(trifluoromethyl)phenoxy)benzyl)oxy)-1-methyl-2,3-dihydroimidazo[1,2-c]pyrimidin-5(1H)-one] |
| ≤ 10 | ≤ 1000 | CN1CCn2c1cc(OCc1ccc(Oc3cc(F)cc(F)c3)c(C#N)c1)nc2=O [Example 111, 2-(3,5-difluorophenoxy)-5-(((1-methyl-5-oxo-1,2,3,5-tetrahydroimidazo[1,2-c]pyri-midin-7-yl)oxy)methyl)benzonitrile] |
| ≤ 10 | ≤ 1000 | CN1CCn2c1cc(OCc1cc(F)c(Oc3ccc(C(F)(F)F)cc3)c(F)c1)nc2=O [Example E84, 7-((3,5-difluoro-4-(4-(trifluoromethyl)phenoxy)benzyl)oxy)-1-methyl-2,3-dihydroimidazo[1,2-c]pyrimidin-5(1H)-one] |
| ≤ 10 | ≤ 1000 | Cc1cc(Oc2ccc(COc3cc4n(c(=O)n3)CCN4C)cc2F)ccc1C#N [Example 149, 4-(2-fluoro-4-(((1-methyl-5-oxo-1,2,3,5-tetrahydroimidazo[1,2-c]pyrimidin-7-yl)oxy)methyl)phenoxy)-2-methylbenzonitrile] |
| ≤ 10 | ≤ 1000 | CN1CCn2c1cc(OCc1ccc(Oc3cccc(F)c3)c(C#N)c1)nc2=O [Example E18, 2-(3-fluorophenoxy)-5-(((1-methyl-5-oxo-1,2,3,5-tetrahydroimidazo[1,2-c]pyrimidin-7-yl)oxy)methyl)benzonitrile] |
| ≤ 1 | ≤ 100 | CN1CCn2c1cc(OCc1ccc(Oc3ccc(Cl)c(C(F)(F)F)c3)c(F)c1)nc2=O [Example E85, 7-((4-(4-chloro-3-(trifluoromethyl)phenoxy)-3-fluorobenzyl)oxy)-1-methyl-2,3-dihydroimidazo[1,2-c]pyrimidin-5(1H)-one] |
| ≤ 10 | ≤ 100 | CN1CCn2c1cc(OCc1ccc(Oc3ccc(Cl)c(C#N)c3)c(C#N)c1)nc2=O [Example 114, 2-chloro-5-(2-cyano-4-(((1-methy-5-oxo-1,2,3,5-tetrahydroimidazo[1,2-c]pyrimidin-7-yl)oxy)methyl)phenoxy)benzonitrile] |
| ≤ 10 | ≤ 100 | CN1CCn2c1cc(OCc1ccc(Oc3ccc(C(F)(F)F)nc3)c(C#N)c1)nc2=O [Example E49, 5-(((1-methyl-5-oxo-1,2,3,5-tetrahydroimidazo[1,2-c]pyrimidin-7-yl)oxy)methyl)-2-((6-(trifluoromethyl)pyridin-3-yl)oxy)benzonitrile] |
| 0.794 | ≤ 100 | N#Cc1ccc(Oc2ccc(COc3cc4n(c(=O)n3)CCN4)cc2F)cc1C(F)(F)F [Example 118, 4-(2-fluoro-4-(((5-oxo-1,2,3,5-tetrahydroimidazo[1,2-c]pyrimidin-7-yl)oxy)methyl)p-hen-oxy)-2-(trifluoromethyl)benzonitrile] |
| ≤ 10 | ≤ 100 | CN1CCn2c1cc(OCc1ccc(Oc3cncc(Cl)c3)c(C#N)c1)nc2=O [Example 134, 2-((5-chloropyridin-3-yl)oxy)-5-(((1-methyl-5-oxo-1,2,3,5-tetrahydroimidazo[1,2-c]pyrimidin-7-yl)oxy)methyl)benzonitrile] |
| ≤ 10 | ≤ 1000 | CN1CCn2c1cc(OCc1ccc(Oc3ccc(C(F)(F)F)cc3)c(C#N)c1)nc2=O [Example E24, 5-(((1-methyl-5-oxo-1,2,3,5-tetrahydroimidazo[1,2-c]pyrimidin-7-yl)oxy)methyl)-2-(4-(trifluoromethyl)phenoxy)benzonitrile, trifluoroacetic acid salt] |
| ≤ 10 | ≤ 100 | CN1CCn2c1cc(OCc1ccc(Oc3ccc(Cl)c(C(F)(F)F)c3)cc1)nc2=O [Example E5, 7-((4-(4-chloro-3-(trifluoromethyl)phenoxy)benzyl)oxy)-1-methyl-2,3-dihydroimidazo[1,2-c]pyrimidin-5(1H)-one] |
| ≤ 10 | ≤ 1000 | CN1CCn2c1cc(OCc1cc(F)c(Oc3cc(F)cc(F)c3)c(F)c1)nc2=O [Example 99, 7-((4-(3,5-difluorophenoxy)-3,5-difluorobenzyl)oxy)-1-methyl-2,3-dihydroimida-zo[1,2-c]pyrimidin-5(1H)-one] |
| ≤ 1 | ≤ 100 | CN1CCn2c1cc(OCc1ccc(Oc3ccc(F)c(C(F)(F)F)c3)c(F)c1)nc2=O [Example E45, 7-((3-fluoro-4-(4-fluoro-3-(trifluoromethyl)phenoxy)benzyl)oxy)-1-methyl-2,3-dihydroimidazo[1,2-c]pyrimidin-5(1H)-one, trifluoroacetic acid salt] |
| ≤ 10 | ≤ 100 | N#Cc1cc(COc2cc3n(c(=O)n2)CCN3)ccc1Oc1cncc(C(F)(F)F)c1 [Example 124, 5-(((5-oxo-1,2,3,5-tetrahydroimidazo[1,2-c]pyrimidin-7-yl)oxy)methyl)-2-((5-(trifluoromethyl)pyridin-3-yl)oxy)benzonitrile, trifluoroacetic acid salt] |
| ≤ 10 | ≤ 1000 | CN1CCn2c1cc(OCc1ccc(Oc3ccnc(Cl)c3)c(C#N)c1)nc2=O [Example 107, 2-((2-chloropyridin-4-yl)oxy)-5-(((1-methyl-5-oxo-1,2,3,5-tetrahydroimidazo[1,2-c]pyrimidin-7-yl)oxy)methyl)benzonitrile] |
| ≤ 1 | ≤ 1000 | CN1CCn2c1cc(OCc1cc(F)c(Oc3cccc(Cl)c3)c(F)c1)nc2=O [Example E82, 7-((4-(3-chlorophenoxy)-3,5-difluorobenzyl)oxy)1-methyl-2,3-dihydroimidazo[1,2-c]pyrimidin-5(1H)-one] |
| ≤ 1 | ≤ 100 | N#Cc1cc(COc2cc3n(c(=O)n2)CCN3)ccc1Oc1cccc(C(F)(F)F)c1 [Example E67, 5-(((5-oxo-1,2,3,5-tetrahydroimidazo[1,2-c]pyrimidin-7-yl)oxy)methyl)-2-(3-(trifluoromethyl)phenoxy)benzonitrile] |
| ≤ 1 | ≤ 1000 | N#Cc1cc(COc2cc3n(c(=O)n2)CCN3)ccc1Oc1ccc(F)c(Cl)c1 [Example E76, 2-(3-chloro-4-fluorophenoxy)-5-(((5-oxo-1,2,3,5-tetrahydroimidazo[1,2-c]pyrimidin-7-yl)oxy)methyl)benzonitrile, trifluoroacetic acid salt] |
| ≤ 10 | ≤ 1000 | CN1CCn2c1cc(OCc1ccc(Oc3ccc(Cl)c(Cl)c3)c(F)c1)nc2=O [Example E41, 7-((4-(3,4-dichlorophenoxy)-3-fluorobenzyl)oxy)-1-methyl-2,3-dihydroimidazo[1,2-c]pyrimidin-5(1H)-one] |
| ≤ 10 | ≤ 100 | N#Cc1cc(COc2cc3n(c(=O)n2)CCN3)ccc1Oc1cc(F)cc(C(F)(F)F)c1 [Example 120, 2-(3-fluoro-5-(trifluoromethyl)phenoxy)-5-(((5-oxo-1,2,3,5-tetrahydroimidazo[1,2-c]pyrimidin-7-yl)oxy)methyl)benzonitrile] |
| 1.58 | ≤ 100 | CN1CCn2c1cc(OCc1ccc(Oc3ccnc(C(F)(F)F)c3)c(F)c1)nc2=O [Example 94, 7-((3-fluoro-4-((2-(trifluoromethyl)pyridin-4-yl)oxy)benzyl)oxy)-1-methyl-2,3-dihydroimidazo[1,2-c]pyrimidin-5(1H)-one] |
